From ChEMBL document CHEMBL1201862, “PubChem BioAssay data set” (2004)
Activity calls are given as the source filed them.

Experiments:
[1] = target: Cytochrome P450 3A4 (Homo sapiens, UniProt P08684); settings: Potency;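 further: confirmatory qHTS run detecting inhibitors and substrates of CYP3A4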
[2] = target: T1, Fatty acid synthase (Homo sapiens, UniProt P49327); assay: FAS thioesterase domain inhibitors, dose response, biochemical, endpoint fluorescence intensity, uHTS hits (AID 624327); type: functional;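 further: fluorescence from hydrolysis of an O-methyl fluorescein acyl ester substrate by the enzyme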
T1 sequence (P49327 whole entry, the tested form may be a part): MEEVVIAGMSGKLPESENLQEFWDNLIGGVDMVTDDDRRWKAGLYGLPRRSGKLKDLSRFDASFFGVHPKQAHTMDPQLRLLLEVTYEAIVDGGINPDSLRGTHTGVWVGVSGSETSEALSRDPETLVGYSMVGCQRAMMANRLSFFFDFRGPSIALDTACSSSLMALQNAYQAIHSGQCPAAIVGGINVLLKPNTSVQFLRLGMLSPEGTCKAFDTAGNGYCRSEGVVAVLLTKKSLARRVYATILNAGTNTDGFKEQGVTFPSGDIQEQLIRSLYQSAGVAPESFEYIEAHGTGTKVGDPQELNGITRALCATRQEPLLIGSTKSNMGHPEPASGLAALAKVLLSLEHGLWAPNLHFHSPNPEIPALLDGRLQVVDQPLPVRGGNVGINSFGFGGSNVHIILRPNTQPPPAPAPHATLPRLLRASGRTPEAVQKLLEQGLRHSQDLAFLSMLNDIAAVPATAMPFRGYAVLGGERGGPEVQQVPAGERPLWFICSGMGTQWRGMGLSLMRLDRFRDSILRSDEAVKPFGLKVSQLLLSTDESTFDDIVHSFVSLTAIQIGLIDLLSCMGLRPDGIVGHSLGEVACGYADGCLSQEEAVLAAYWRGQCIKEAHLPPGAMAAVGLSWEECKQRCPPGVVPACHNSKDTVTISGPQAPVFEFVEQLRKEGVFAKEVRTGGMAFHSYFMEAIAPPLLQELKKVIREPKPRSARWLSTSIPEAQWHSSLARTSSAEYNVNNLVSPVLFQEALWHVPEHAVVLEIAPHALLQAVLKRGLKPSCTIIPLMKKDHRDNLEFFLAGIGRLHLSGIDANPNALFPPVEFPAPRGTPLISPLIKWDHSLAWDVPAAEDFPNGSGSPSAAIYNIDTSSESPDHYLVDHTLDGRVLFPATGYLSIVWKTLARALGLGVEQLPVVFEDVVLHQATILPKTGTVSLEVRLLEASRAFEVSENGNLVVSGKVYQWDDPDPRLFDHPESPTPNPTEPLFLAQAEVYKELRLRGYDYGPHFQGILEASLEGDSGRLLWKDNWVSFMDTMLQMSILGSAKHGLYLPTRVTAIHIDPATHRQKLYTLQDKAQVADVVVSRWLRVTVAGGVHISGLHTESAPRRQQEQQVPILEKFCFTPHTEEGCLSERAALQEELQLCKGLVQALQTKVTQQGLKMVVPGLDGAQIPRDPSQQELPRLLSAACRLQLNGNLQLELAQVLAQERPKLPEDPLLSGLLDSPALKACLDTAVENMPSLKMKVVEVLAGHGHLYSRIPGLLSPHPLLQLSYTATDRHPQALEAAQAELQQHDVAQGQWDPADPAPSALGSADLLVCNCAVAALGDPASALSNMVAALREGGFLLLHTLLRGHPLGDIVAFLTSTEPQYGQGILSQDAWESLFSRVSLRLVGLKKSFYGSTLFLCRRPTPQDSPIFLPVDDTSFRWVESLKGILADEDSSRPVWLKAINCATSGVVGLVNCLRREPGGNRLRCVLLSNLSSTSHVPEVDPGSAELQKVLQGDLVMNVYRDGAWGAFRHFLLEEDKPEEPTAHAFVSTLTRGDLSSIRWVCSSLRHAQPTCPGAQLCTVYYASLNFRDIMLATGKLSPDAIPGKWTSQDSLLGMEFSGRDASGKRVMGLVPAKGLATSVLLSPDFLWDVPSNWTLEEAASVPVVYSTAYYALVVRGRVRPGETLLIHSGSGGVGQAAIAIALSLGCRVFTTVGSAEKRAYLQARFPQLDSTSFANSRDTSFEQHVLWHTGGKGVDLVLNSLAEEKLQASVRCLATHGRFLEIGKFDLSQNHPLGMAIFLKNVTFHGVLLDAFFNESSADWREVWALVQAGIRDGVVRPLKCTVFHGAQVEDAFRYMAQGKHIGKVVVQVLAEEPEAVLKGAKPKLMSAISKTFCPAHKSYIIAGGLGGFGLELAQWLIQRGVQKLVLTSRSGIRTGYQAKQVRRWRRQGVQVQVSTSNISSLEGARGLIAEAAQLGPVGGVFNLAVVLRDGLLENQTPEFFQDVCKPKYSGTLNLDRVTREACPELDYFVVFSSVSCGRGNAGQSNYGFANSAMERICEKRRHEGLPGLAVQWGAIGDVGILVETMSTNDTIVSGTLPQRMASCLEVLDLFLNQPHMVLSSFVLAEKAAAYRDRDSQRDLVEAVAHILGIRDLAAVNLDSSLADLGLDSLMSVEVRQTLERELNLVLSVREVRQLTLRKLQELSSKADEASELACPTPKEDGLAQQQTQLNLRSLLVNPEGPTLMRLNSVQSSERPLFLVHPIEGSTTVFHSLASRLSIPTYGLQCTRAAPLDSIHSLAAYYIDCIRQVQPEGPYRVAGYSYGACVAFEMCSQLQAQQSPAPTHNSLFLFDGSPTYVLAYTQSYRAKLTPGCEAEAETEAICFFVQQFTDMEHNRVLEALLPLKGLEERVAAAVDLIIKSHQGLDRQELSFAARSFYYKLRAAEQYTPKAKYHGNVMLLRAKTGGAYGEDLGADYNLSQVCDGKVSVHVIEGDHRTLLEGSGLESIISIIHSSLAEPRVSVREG

[3] = target: T1, Fatty acid synthase; assay: FAS thioesterase domain inhibitors, dose response, biochemical, kinetic fluorescence intensity (AID 624326); type: functional;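 further: rate of fluorescence rise from hydrolysis of a fluorogenic O-methyl fluorescein ester substrate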
[4] = target: DNA dC->dU-editing enzyme APOBEC-3A (Homo sapiens, UniProt P31941); assay: Dose Response confirmation of small molecule APOBEC3A DNA Deaminase Inhibitors via a fluorescence-based single-stranded DNA deaminase assay. [Related pubchem assays (depositor defined):AID493011, AID493024]; type: functional
Sequence of DNA dC->dU-editing enzyme APOBEC-3A (P31941 whole entry): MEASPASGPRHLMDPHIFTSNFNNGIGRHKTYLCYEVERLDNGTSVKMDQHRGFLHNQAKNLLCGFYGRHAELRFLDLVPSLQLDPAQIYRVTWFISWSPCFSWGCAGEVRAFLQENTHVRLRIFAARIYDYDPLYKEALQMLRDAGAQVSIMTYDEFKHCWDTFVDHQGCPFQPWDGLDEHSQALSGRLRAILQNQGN

[5] = target: DNA dC->dU-editing enzyme APOBEC-3G (Homo sapiens, UniProt Q9HC16); type: functional;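 further: Dose-response counterscreen measuring inhibition of APOBEC3G DNA deaminase activity, run while confirming APOBEC3A inhibitors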
Sequence of DNA dC->dU-editing enzyme APOBEC-3G (Q9HC16 whole entry): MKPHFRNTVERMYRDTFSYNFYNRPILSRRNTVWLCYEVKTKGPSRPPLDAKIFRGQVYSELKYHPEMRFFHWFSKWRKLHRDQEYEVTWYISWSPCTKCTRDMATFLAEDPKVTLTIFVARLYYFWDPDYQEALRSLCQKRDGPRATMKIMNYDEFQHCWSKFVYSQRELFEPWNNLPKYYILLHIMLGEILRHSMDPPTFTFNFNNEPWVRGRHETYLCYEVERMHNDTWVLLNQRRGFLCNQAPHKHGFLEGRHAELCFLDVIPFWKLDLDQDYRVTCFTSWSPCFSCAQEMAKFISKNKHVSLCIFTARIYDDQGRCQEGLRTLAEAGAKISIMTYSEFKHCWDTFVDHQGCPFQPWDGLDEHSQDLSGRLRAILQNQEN

[6] = target: Paired box protein Pax-8 (Homo sapiens, UniProt Q06710); assay: inhibitors of PAX8-driven TPO luciferase reporter, dose response, RMG-I cells, cherry-pick (AID 687027); type: functional, cell-based;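 further: luciferase reporter driven by Pax8 target thyroperoxidase promoter measured by SteadyGlo luminescence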
Sequence of Paired box protein Pax-8 (Q06710 whole entry): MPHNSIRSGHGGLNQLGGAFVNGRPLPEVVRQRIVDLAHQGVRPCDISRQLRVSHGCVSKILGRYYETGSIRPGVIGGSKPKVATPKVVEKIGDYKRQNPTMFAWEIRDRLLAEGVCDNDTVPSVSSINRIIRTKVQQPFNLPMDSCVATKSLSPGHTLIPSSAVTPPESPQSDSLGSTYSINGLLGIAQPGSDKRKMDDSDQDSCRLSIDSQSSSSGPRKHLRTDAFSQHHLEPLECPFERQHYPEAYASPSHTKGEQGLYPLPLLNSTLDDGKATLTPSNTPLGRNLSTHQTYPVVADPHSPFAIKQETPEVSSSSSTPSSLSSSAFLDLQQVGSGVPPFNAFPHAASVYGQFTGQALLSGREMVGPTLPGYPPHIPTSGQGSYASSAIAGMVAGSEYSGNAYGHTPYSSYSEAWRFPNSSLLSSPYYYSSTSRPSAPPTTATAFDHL

[7] = LGR2 antagonists, dose response, cell-based, HEK293, CRE-luciferase reporter, cherry pick, set 2 (AID 743343); type: functional;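 further: transfected cells were stimulated with diluted bursicon conditioned medium after compound addition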
[8] = non-specific cell cytotoxicity, dose response, cytotoxicity control for PAX8 inhibitor project, plate reader, dry powder samples (AID 743021); type: functional, cell-based
[9] = MC4R antagonists, dose response, counter-screen for LGR2 antagonist project, cell-based, plate reader, cherry pick (AID 743444); type: functional;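 further: transfected HEK 293 cells stimulated with alpha-MSH peptide; potency of inhibitors of the alpha-MSH evoked signal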
[10] = target: T2, Leucine aminopeptidase (Plasmodium falciparum 3D7, UniProt Q8IL11); assay: P. falciparum M17LAP inhibitors, primary screen, biochemical, fluorogenic H-Leu-NHMec substrate, 1536-well (AID 1619); type: functional
T2 sequence (Q8IL11 whole entry): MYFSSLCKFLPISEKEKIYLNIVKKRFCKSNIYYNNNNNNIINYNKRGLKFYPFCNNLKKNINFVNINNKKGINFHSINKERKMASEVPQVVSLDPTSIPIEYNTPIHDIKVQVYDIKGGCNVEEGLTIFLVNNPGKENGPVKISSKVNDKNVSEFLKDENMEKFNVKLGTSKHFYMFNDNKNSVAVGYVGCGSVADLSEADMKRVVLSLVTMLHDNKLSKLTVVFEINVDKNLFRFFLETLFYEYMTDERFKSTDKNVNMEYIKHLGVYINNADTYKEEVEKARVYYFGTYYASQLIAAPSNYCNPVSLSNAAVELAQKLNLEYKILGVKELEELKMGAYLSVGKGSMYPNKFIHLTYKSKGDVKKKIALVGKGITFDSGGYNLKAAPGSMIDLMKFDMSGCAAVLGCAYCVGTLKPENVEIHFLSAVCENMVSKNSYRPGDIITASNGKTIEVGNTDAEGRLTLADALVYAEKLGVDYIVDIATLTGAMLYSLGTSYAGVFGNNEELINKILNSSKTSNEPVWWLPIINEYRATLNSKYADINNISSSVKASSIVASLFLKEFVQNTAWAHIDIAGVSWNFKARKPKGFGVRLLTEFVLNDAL

[11] = target: Eukaryotic translation initiation factor 4E (Mus musculus, UniProt P63073); assay: eIF4E–eIF4G protein interaction inhibitors, dose response, biochemical, TR-FRET (AID 855); type: functional;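 further: potency for disrupting eIF4E binding to eIF4GI seen as loss of FRET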
Sequence of Eukaryotic translation initiation factor 4E (P63073 whole entry): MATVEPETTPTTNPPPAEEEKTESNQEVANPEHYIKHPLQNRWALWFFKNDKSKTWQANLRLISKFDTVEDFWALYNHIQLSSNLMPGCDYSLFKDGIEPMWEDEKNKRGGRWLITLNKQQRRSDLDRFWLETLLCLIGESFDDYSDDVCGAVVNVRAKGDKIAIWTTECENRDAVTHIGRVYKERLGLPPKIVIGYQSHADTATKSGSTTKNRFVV

[12] = tested on: Streptococcus sp. 'group A'; assay: growth inhibition of control SK(-) GAS strain, dose response, counter-screen for streptokinase expression inhibitor project, luminescence, kanamycin, BacTiterGlo, confirmation (AID 1900); type: functional, organism-based
[13] = target: T3, Streptokinase A (Streptococcus pyogenes serotype M1, UniProt P10520); assay: S. pyogenes streptokinase expression inhibitors, potency, dose response, plasminogen activation absorbance, OD405 (AID 1914); type: functional, Streptococcus pyogenes M1 GAS;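 further: secreted streptokinase activity via plasminogen activation per viability signal from cell pellet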
T3 sequence (P10520 whole entry): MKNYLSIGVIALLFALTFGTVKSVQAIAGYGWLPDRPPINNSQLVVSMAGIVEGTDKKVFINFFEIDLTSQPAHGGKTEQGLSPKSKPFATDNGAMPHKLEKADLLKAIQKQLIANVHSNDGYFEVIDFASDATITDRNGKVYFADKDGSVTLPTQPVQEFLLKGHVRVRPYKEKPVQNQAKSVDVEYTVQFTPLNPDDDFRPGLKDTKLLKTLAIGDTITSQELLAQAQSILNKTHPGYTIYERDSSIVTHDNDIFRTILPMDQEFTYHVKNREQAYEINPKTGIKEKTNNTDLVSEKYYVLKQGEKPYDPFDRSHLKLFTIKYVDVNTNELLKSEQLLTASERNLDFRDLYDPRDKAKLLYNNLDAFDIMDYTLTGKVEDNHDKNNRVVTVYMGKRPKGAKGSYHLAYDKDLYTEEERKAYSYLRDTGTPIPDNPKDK

[14] = microbe, parasite or virus in culture; type: functional; settings: Mycobacterium tuberculosis
[15] = target: T4, Calpain-2 catalytic subunit (Sus scrofa, UniProt P43367); assay: pig calpain II inhibitor potency, dose response, biochemical, fluorogenic peptide substrate (AID 1420); type: functional
T4 sequence (P43367 whole entry): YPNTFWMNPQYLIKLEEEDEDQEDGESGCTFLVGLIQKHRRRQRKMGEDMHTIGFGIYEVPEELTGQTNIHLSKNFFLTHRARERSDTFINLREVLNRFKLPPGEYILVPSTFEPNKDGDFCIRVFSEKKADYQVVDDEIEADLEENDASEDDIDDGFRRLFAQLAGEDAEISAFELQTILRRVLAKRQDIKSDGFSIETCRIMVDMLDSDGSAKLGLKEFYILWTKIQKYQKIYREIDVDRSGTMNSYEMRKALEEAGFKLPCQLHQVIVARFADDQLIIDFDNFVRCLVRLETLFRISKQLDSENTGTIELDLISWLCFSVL

[16] = tested on: Streptococcus; assay: Group A Streptococcus viability loss, dose response, counter-screen for streptokinase expression inhibitor project, luminescence, BacTiterGlo (AID 1915); type: functional, organism-based;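 further: potency for reduction of bacterial viability or growth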
[17] = inhibitors of firefly luciferase expression or activity, dose response, H4 neuroglioma cells, luminescence (AID 1990); type: functional, cell-based
[18] = Luminescence Cell-Based Dose Response HTS to Identify Inhibitors of 5'UTR Stem-Loop Driven Prion Protein mRNA Translation in H4 Neuroglioblastoma Cells. [Related pubchem assays: 1827 (Project Summary), 1813 (Primary HTS)]; type: functional
[19] = inhibitors of SNCA 5'UTR-driven reporter translation, confirmation, H4 neuroglioma cells, luminescence (AID 1988); type: functional, cell-based
[20] = Luminescence Cell-Based Dose Retest to Confirm Inhibitors of Cancer Stem Cells. [Related pubchem assays (depositor defined):AID2717, AID2721]; type: functional; settings: Homo sapiens
[21] = target: T5, Ubiquitin-conjugating enzyme E2 N (Homo sapiens, UniProt P61088); type: functional;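 further: Dose-response confirmation in a TR-FRET assay detecting UBC13-driven polyubiquitin chain formation, inhibition measured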
T5 sequence (P61088 whole entry): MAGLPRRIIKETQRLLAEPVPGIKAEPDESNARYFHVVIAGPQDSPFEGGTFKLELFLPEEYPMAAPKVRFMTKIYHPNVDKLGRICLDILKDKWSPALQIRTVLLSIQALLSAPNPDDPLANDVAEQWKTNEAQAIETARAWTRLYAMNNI

[22] = target: T6, Apoptotic protease-activating factor 1 (Homo sapiens, UniProt O14727); type: functional
T6 sequence (O14727 whole entry): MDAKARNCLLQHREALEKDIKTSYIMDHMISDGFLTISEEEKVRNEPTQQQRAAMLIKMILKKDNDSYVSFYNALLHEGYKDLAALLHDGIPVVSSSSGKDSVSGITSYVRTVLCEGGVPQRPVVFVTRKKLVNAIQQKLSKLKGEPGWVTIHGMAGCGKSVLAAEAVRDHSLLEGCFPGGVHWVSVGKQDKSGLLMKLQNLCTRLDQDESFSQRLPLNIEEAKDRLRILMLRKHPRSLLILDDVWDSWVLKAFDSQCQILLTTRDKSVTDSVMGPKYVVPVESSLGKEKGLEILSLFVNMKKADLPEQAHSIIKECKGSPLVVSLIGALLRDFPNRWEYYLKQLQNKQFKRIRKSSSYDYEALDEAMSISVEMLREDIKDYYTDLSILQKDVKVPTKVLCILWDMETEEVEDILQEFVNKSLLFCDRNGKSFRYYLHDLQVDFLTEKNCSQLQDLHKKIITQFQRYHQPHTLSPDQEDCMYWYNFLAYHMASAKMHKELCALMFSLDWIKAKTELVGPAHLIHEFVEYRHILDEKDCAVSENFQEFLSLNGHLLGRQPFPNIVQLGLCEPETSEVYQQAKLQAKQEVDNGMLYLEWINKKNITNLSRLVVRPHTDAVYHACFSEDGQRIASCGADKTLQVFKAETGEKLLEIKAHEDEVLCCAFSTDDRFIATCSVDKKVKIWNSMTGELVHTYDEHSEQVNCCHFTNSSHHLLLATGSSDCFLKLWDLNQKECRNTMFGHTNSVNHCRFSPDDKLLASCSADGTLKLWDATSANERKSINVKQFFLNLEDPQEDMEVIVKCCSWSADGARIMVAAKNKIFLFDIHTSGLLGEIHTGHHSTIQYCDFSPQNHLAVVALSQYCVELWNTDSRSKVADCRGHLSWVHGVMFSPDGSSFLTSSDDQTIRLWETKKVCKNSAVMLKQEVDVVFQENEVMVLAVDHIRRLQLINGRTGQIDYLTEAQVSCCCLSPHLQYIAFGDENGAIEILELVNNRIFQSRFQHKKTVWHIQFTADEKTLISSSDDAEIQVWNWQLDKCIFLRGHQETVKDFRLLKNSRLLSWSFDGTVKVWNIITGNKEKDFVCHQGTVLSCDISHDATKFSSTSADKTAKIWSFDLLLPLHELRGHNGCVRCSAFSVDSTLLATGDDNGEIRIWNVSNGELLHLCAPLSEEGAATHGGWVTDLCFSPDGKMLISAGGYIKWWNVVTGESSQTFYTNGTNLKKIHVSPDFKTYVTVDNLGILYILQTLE

Sequence of Cytochrome P450 3A4 (P08684 whole entry, the tested form may be a part): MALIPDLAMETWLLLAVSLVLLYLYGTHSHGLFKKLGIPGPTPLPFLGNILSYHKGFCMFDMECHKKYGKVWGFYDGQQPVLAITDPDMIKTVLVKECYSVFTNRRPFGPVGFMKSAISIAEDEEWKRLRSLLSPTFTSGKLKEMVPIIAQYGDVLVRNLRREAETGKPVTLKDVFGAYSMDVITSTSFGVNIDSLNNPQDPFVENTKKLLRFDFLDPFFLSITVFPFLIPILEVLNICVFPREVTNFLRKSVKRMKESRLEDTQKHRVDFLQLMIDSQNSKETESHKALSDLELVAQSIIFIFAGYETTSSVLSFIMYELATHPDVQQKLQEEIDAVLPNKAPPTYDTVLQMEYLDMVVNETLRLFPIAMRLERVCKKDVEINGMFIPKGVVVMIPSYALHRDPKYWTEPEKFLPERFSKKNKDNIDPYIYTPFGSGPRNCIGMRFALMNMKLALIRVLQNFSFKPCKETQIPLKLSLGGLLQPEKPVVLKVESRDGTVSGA

COC(=O)CC[C@@H](C)[C@H]1CC[C@H]2[C@@H]3[C@H](O)C[C@@H]4C[C@H](O)CC[C@]4(C)[C@H]3C[C@H](O)[C@]12C [CHOLIC ACID, METHYL ESTER]
AC50 [1]: 31.6 µM (inconclusive)

CC(C)(C)OC(=O)CNC(=O)c1[nH]cnc1C(=O)N[C@@H](CCCCNC(=O)OC(C)(C)C)C(=O)OC(C)(C)C
IC50 [2]: 0.517 µM (active) | IC50 [3]: 0.364 µM (active)

CCC1=C2CC[C@H]3C(=O)NC(=O)[C@H]3[C@H]2[C@@]2(C)/C(=N/CC3CC3)OC(=O)N2C1=O
AC50 [1]: 25.1 µM (inconclusive)

Cc1ccc(S(=O)(=O)N(CC(=O)O)Cc2ccco2)cc1
IC50 [4]: 16 µM (active) | IC50 [5]: 28.4 µM (active)

Cc1cc(Br)ccc1NC(=O)C(C)c1ccc([N+](=O)[O-])cc1 (stereo unspecified)
IC50 [2]: 31.9 µM (inactive) | IC50 [3]: 18.8 µM (active)

Cc1ccc2nc(-c3ccc(Br)cc3)cn2c1
AC50 [6]: 11.2 µM (active) | AC50 [7]: 0.662 µM (active) | AC50 [8]: 24.6 µM (active) | AC50 [9]: 0.704 µM (active)

CCc1ccc(C(=O)CSc2nnc[nH]2)cc1
IC50 [10]: 16.7 µM (active) | IC50 [11]: > 64 µM (inactive)

CC(C)C[C@H](NC(=O)c1[nH]cnc1C(=O)NC1CCN(C(=O)OC(C)(C)C)CC1)C(=O)OCc1ccccc1
EC50 [12]: 8.37 µM (active) | EC50 [13]: > 150 µM (not active) | CC50 [14]: > 40 µM (active) | IC50 [15]: 4.9 µM (not active) | EC50 [16]: 12.3 µM (active) | IC50 [2]: 8.64 µM (active) | IC50 [3]: 6.28 µM (active)

CC(C)(C)c1ccc(OCCC(=O)OCC(=O)NCc2ccccc2)cc1
IC50 [2]: 6.55 µM (active) | IC50 [3]: 6.7 µM (active)

CCn1cc(C(=O)OCC(=O)c2cc(C)n(-c3ccc(OC(F)F)cc3)c2C)c(=O)c2ccc(C)nc21
IC50 [11]: > 64 µM (inactive)

Cc1ccc(CCCOC(=O)C[N+]2(C)CCCCC2)cc1
IC50 [4]: 2.57 µM (active) | IC50 [5]: 2.58 µM (active)

O=C(CN1CCN(C(=O)COc2cccc(F)c2)CC1)Nc1ccc(Cl)c(C(F)(F)F)c1
CC50 [14]: > 40 µM (active)

CCN1CCN(Cc2ccc(NC(=O)c3cc(NC(=O)c4cncc(-c5cccs5)c4)cc(OC)c3)cc2C(F)(F)F)CC1
EC50 [17]: > 120 µM (not active) | EC50 [18]: 8.93 µM (active) | EC50 [19]: > 120 µM (not active) | CC50 [14]: 8.62 µM (active) | AC50 [20]: 7.38 µM (active) | IC50 [21]: > 20 µM (inactive)

CCOc1ccc(NC(=O)c2cc3ccccc3cc2O)cc1
IC50 [4]: 12.9 µM (active) | IC50 [5]: 47.5 µM (active)

CCCn1c(-c2ccc(F)cc2)nc2c(NCCCCN(C)C)nc(C)nc21
AC50 [1]: 25.1 µM (inconclusive)

O=C(CCc1ccc(O)cc1)c1c(O)cc(O)cc1O[C@H]1OC(CO)C(O)C(O)C1O (stereo partly specified)
AC50 [1]: 39.8 µM (inconclusive)

CCCCOc1ccc(C(=O)NCC(=O)NCC(c2cccs2)N2CCOCC2)cc1 (stereo unspecified)
IC50 [22]: > 100 µM (inactive)

O=[N+]([O-])c1ccc(C[n+]2cccc3ccccc32)cc1
IC50 [4]: 3.26 µM (active) | IC50 [5]: 5.45 µM (active)

O=C(OCC(=O)N1CCc2ccccc2C1)c1ccc(Cl)c([N+](=O)[O-])c1
IC50 [2]: 5.45 µM (active) | IC50 [3]: 2.41 µM (active)

c1ccc2c(Cc3c[nH]c4ccccc34)c[nH]c2c1 [ARUNDINE]
AC50 [1]: 39.8 µM (inconclusive)

O=C(O)C1CC=CCC1C(=O)Nc1ccccc1Cl (stereo unspecified)
IC50 [10]: 12 µM (active)

CC(C)(C)NC(=O)C(=O)NN=C1CCCCCCC1
IC50 [11]: 50 µM (inactive)

O=C(O)/C=C/C(=O)Nc1ccccc1C(=O)OCC(=O)c1ccc2c(c1)OCCO2
IC50 [10]: 36.9 µM (active)
